Experimental data from US20230085307A1, “PYRIDAZINONE COMPOUND AND HERBICIDE” (NISSAN CHEMICAL CORPORATION, priority 2019, published 2023).

Legend:
redroot pigweed [1] = assay: Test Example 4: herbicidal effect by soil treatment (Table 19, symbol N); type: in vivo, redroot pigweed (Amaranthus retroflexus); details: amount of applied herbicide 320 g/ha
Method in brief: (§1)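 Emulsion of test compound, water-diluted to predetermined amount, sprayed on soil after sowing (seed depth ~1.5 cm, sterilized diluvial soil). Greenhouse, 25–30° C. Effect graded at three weeks post-spray.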

rice flat sedge = assay: Test Example 3: herbicidal effect by foliage application, Wagner pot (Table 18, symbol E); type: in vivo, rice flat sedge (Cyperus iria); details: 320 g/ha
Method in brief: (§2)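 Plants were sown in alluvial soil held under 0.1–0.5 cm standing water and grown 14 days in a greenhouse at 25–30 °C. An emulsifiable formulation, water-diluted to the set dose, was then sprayed onto the foliage, and effects were scored three weeks later using previously defined criteria.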

persian speedwell [2] = assay: Test Example 5: herbicidal effect by foliage application, plastic box (Table 20, symbol R); type: in vivo, Persian speedwell (Veronica persica); details: amount of applied herbicide 320 g/ha; foliage application after 14-day growth; evaluated three weeks after application
Method in brief: (§3)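 Post-emergence foliar test in sterilized diluvial soil. Compound applied as water-diluted emulsion at a predetermined rate to 14-day-old plants; evaluation at three weeks.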

redroot pigweed [3] = assay: Test Example 5: herbicidal effect by foliage application, plastic box (Table 20, symbol N); type: in vivo, redroot pigweed (Amaranthus retroflexus); details: amount of applied herbicide 320 g/ha; foliage application after 14-day growth; evaluated three weeks after application
Method in brief: as §3

wild oat [4] = assay: Test Example 4: herbicidal effect by soil treatment (Table 19, symbol I); type: in vivo, wild oat (Avena fatua); details: amount of applied herbicide 320 g/ha
Method in brief: as §1

velvetleaf [5] = assay: Test Example 4: herbicidal effect by soil treatment (Table 19, symbol M); type: in vivo, velvetleaf (Abutilon theophrasti); details: amount of applied herbicide 320 g/ha
Method in brief: as §1

chickweed [6] = assay: Test Example 4: herbicidal effect by soil treatment (Table 19, symbol P); type: in vivo, common chickweed (Stellaria media); details: amount of applied herbicide 320 g/ha
Method in brief: as §1

Italian ryegrass [7] = assay: Test Example 5: herbicidal effect by foliage application, plastic box (Table 20, symbol K); type: in vivo, Italian ryegrass (Lolium multiflorum); details: amount of applied herbicide 320 g/ha; foliage application after 14-day growth; evaluated three weeks after application
Method in brief: as §3

velvetleaf [8] = assay: Test Example 5: herbicidal effect by foliage application, plastic box (Table 20, symbol M); type: in vivo, velvetleaf (Abutilon theophrasti); details: amount of applied herbicide 320 g/ha; foliage application after 14-day growth; evaluated three weeks after application
Method in brief: as §3

windgrass [9] = assay: Test Example 5: herbicidal effect by foliage application, plastic box (Table 20, symbol L); type: in vivo, windgrass (Apera spica-venti); details: amount of applied herbicide 320 g/ha; foliage application after 14-day growth; evaluated three weeks after application
Method in brief: as §3

green foxtail [10] = assay: Test Example 5: herbicidal effect by foliage application, plastic box (Table 20, symbol G); type: in vivo, green foxtail (Setaria viridis); details: amount of applied herbicide 320 g/ha; foliage application after 14-day growth; evaluated three weeks after application
Method in brief: as §3

persian speedwell [11] = assay: Test Example 4: herbicidal effect by soil treatment (Table 19, symbol R); type: in vivo, Persian speedwell (Veronica persica); details: amount of applied herbicide 320 g/ha
Method in brief: as §1

blackgrass [12] = assay: Test Example 4: herbicidal effect by soil treatment (Table 19, symbol J); type: in vivo, blackgrass (Alopecurus myosuroides); details: amount of applied herbicide 320 g/ha
Method in brief: as §1

lambsquarters [13] = assay: Test Example 4: herbicidal effect by soil treatment (Table 19, symbol O); type: in vivo, lambsquarters (Chenopodium album); details: amount of applied herbicide 320 g/ha
Method in brief: as §1

Italian ryegrass [14] = assay: Test Example 4: herbicidal effect by soil treatment (Table 19, symbol K); type: in vivo, Italian ryegrass (Lolium multiflorum); details: amount of applied herbicide 320 g/ha
Method in brief: as §1

wild oat [15] = assay: Test Example 5: herbicidal effect by foliage application, plastic box (Table 20, symbol I); type: in vivo, wild oat (Avena fatua); details: amount of applied herbicide 320 g/ha; foliage application after 14-day growth; evaluated three weeks after application
Method in brief: as §3

windgrass [16] = assay: Test Example 4: herbicidal effect by soil treatment (Table 19, symbol L); type: in vivo, windgrass (Apera spica-venti); details: amount of applied herbicide 320 g/ha
Method in brief: as §1

Chinese sprangletop = assay: Test Example 3: herbicidal effect by foliage application, Wagner pot (Table 18, symbol D); type: in vivo, chinese sprangletop (Leptochloa chinensis); details: 320 g/ha
Method in brief: as §2

blackgrass [17] = assay: Test Example 5: herbicidal effect by foliage application, plastic box (Table 20, symbol J); type: in vivo, blackgrass (Alopecurus myosuroides); details: amount of applied herbicide 320 g/ha; foliage application after 14-day growth; evaluated three weeks after application
Method in brief: as §3

chickweed [18] = assay: Test Example 5: herbicidal effect by foliage application, plastic box (Table 20, symbol P); type: in vivo, common chickweed (Stellaria media); details: amount of applied herbicide 320 g/ha; foliage application after 14-day growth; evaluated three weeks after application
Method in brief: as §3

southern crabgrass [19] = assay: Test Example 5: herbicidal effect by foliage application, plastic box (Table 20, symbol F); type: in vivo, southern crabgrass (Digitaria ciliaris); details: amount of applied herbicide 320 g/ha; foliage application after 14-day growth; evaluated three weeks after application
Method in brief: as §3

barnyard grass [20] = assay: Test Example 3: herbicidal effect by foliage application, Wagner pot (Table 18, symbol H); type: in vivo, barnyard grass (Echinochloa crus-galli); details: 320 g/ha
Method in brief: as §2

green foxtail [21] = assay: Test Example 4: herbicidal effect by soil treatment (Table 19, symbol G); type: in vivo, green foxtail (Setaria viridis); details: amount of applied herbicide 320 g/ha
Method in brief: as §1

lambsquarters [22] = assay: Test Example 5: herbicidal effect by foliage application, plastic box (Table 20, symbol O); type: in vivo, lambsquarters (Chenopodium album); details: amount of applied herbicide 320 g/ha; foliage application after 14-day growth; evaluated three weeks after application
Method in brief: as §3

barnyard grass [23] = assay: Test Example 4: herbicidal effect by soil treatment (Table 19, symbol H); type: in vivo, barnyard grass (Echinochloa crus-galli); details: amount of applied herbicide 320 g/ha
Method in brief: as §1

barnyard grass [24] = assay: Test Example 5: herbicidal effect by foliage application, plastic box (Table 20, symbol H); type: in vivo, barnyard grass (Echinochloa crus-galli); details: amount of applied herbicide 320 g/ha; foliage application after 14-day growth; evaluated three weeks after application
Method in brief: as §3

southern crabgrass [25] = assay: Test Example 4: herbicidal effect by soil treatment (Table 19, symbol F); type: in vivo, southern crabgrass (Digitaria ciliaris); details: amount of applied herbicide 320 g/ha
Method in brief: as §1

Structure (SMILES) | Herbicidal effect by soil treatment, N: redroot pigweed (redroot pigweed [1]) | herbicidal effect on rice flat sedge (E) (rice flat sedge) | Herbicidal effect by foliage application, R: persian speedwell (persian speedwell [2]) | Herbicidal effect by foliage application, N: redroot pigweed (redroot pigweed [3]) | Herbicidal effect by soil treatment, I: wild oat (wild oat [4]) | Herbicidal effect by soil treatment, M: velvetleaf (velvetleaf [5]) | Herbicidal effect by soil treatment, P: chickweed (chickweed [6]) | Herbicidal effect by foliage application, K: Italian ryegrass (Italian ryegrass [7]) | Herbicidal effect by foliage application, M: velvetleaf (velvetleaf [8]) | Herbicidal effect by foliage application, L: windgrass (windgrass [9]) | Herbicidal effect by foliage application, G: green foxtail (green foxtail [10]) | Herbicidal effect by soil treatment, R: persian speedwell (persian speedwell [11]) | Herbicidal effect by soil treatment, J: blackgrass (blackgrass [12]) | Herbicidal effect by soil treatment, O: lambsquarters (lambsquarters [13]) | Herbicidal effect by soil treatment, K: Italian ryegrass (Italian ryegrass [14]) | Herbicidal effect by foliage application, I: wild oat (wild oat [15]) | Herbicidal effect by soil treatment, L: windgrass (windgrass [16]) | herbicidal effect on Chinese sprangletop (D) (Chinese sprangletop) | Herbicidal effect by foliage application, J: blackgrass (blackgrass [17]) | Herbicidal effect by foliage application, P: chickweed (chickweed [18]) | further results
CCSc1ccc(-c2sc3c(Cl)cccc3c2-c2c(O)c(C)nn(C)c2=O)cc1 [4-094] | 5 (Herbicidal rate of 90% or more (almost completely withered)) | 4 (Herbicidal rate of 70% or more and less than 90%) | 5 (Herbicidal rate of 90% or more (almost completely withered)) | 5 (Herbicidal rate of 90% or more (almost completely withered)) | 0 (Herbicidal rate of 5% or less (almost no effect)) | 0 (Herbicidal rate of 5% or less (almost no effect)) | 0 (Herbicidal rate of 5% or less (almost no effect)) | 4 (Herbicidal rate of 70% or more and less than 90%) | 4 (Herbicidal rate of 70% or more and less than 90%) | 5 (Herbicidal rate of 90% or more (almost completely withered)) | 4 (Herbicidal rate of 70% or more and less than 90%) | 3 (Herbicidal rate of 40% or more and less than 70%) | 0 (Herbicidal rate of 5% or less (almost no effect)) | 3 (Herbicidal rate of 40% or more and less than 70%) | 2 (Herbicidal rate of 20% or more and less than 40%) | 4 (Herbicidal rate of 70% or more and less than 90%) | 0 (Herbicidal rate of 5% or less (almost no effect)) | 4 (Herbicidal rate of 70% or more and less than 90%) | 5 (Herbicidal rate of 90% or more (almost completely withered)) | 5 (Herbicidal rate of 90% or more (almost completely withered)) | Herbicidal effect by foliage application, F: southern crabgrass (southern crabgrass [19]): 0 (Herbicidal rate of 5% or less (almost no effect)); herbicidal effect on barnyard grass (H) (barnyard grass [20]): 5 (Herbicidal rate of 90% or more (almost completely withered)); Herbicidal effect by soil treatment, G: green foxtail (green foxtail [21]): 0 (Herbicidal rate of 5% or less (almost no effect)); Herbicidal effect by foliage application, O: lambsquarters (lambsquarters [22]): 5 (Herbicidal rate of 90% or more (almost completely withered)); Herbicidal effect by soil treatment, H: barnyard grass (barnyard grass [23]): 0 (Herbicidal rate of 5% or less (almost no effect)); Herbicidal effect by foliage application, H: barnyard grass (barnyard grass [24]): 3 (Herbicidal rate of 40% or more and less than 70%); Herbicidal effect by soil treatment, F: southern crabgrass (southern crabgrass [25]): 0 (Herbicidal rate of 5% or less (almost no effect))
Cc1nn(C)c(=O)c(-c2c(-c3ccc(Br)cc3)sc3c(C)cccc23)c1O [4-104] | 4 (Herbicidal rate of 70% or more and less than 90%) | 0 (Herbicidal rate of 5% or less (almost no effect)) | 5 (Herbicidal rate of 90% or more (almost completely withered)) | 5 (Herbicidal rate of 90% or more (almost completely withered)) | 0 (Herbicidal rate of 5% or less (almost no effect)) | 2 (Herbicidal rate of 20% or more and less than 40%) | 3 (Herbicidal rate of 40% or more and less than 70%) | 4 (Herbicidal rate of 70% or more and less than 90%) | 5 (Herbicidal rate of 90% or more (almost completely withered)) | 3 (Herbicidal rate of 40% or more and less than 70%) | 0 (Herbicidal rate of 5% or less (almost no effect)) | 3 (Herbicidal rate of 40% or more and less than 70%) | 0 (Herbicidal rate of 5% or less (almost no effect)) | 1 (Herbicidal rate of 5% or more and less than 20%) | 0 (Herbicidal rate of 5% or less (almost no effect)) | 0 (Herbicidal rate of 5% or less (almost no effect)) | 0 (Herbicidal rate of 5% or less (almost no effect)) | 0 (Herbicidal rate of 5% or less (almost no effect)) | 0 (Herbicidal rate of 5% or less (almost no effect)) | 5 (Herbicidal rate of 90% or more (almost completely withered)) | Herbicidal effect by foliage application, F: southern crabgrass (southern crabgrass [19]): 0 (Herbicidal rate of 5% or less (almost no effect)); herbicidal effect on barnyard grass (H) (barnyard grass [20]): 2 (Herbicidal rate of 20% or more and less than 40%); Herbicidal effect by soil treatment, G: green foxtail (green foxtail [21]): 0 (Herbicidal rate of 5% or less (almost no effect)); Herbicidal effect by foliage application, O: lambsquarters (lambsquarters [22]): 4 (Herbicidal rate of 70% or more and less than 90%); Herbicidal effect by soil treatment, H: barnyard grass (barnyard grass [23]): 0 (Herbicidal rate of 5% or less (almost no effect)); Herbicidal effect by foliage application, H: barnyard grass (barnyard grass [24]): 0 (Herbicidal rate of 5% or less (almost no effect)); Herbicidal effect by soil treatment, F: southern crabgrass (southern crabgrass [25]): 0 (Herbicidal rate of 5% or less (almost no effect))
